Reference: the NIST ThermoML archive (doi:10.1016/j.jct.2016.09.008)
Numbers after ± are expanded uncertainties.

Experiments:
[1] = wn = mass fraction of the nth substance listed; conditions: 298.15 K; 101.1 kPa; Liquid; Vibrating tube method; w1 = 0.85
[2] = refractive index (Na D-line) (dimensionless); wn = mass fraction of the nth substance listed; conditions: 298.15 K; 101.1 kPa; Liquid; Standard Abbe refractometry; w1 = 0.85
[3] = refractive index (Na D-line) (dimensionless); conditions: 298.15 K; 101.33 kPa; Liquid; Standard Abbe refractometry
[4] = 298.15 K; 101.33 kPa; Liquid; Vibrating tube method

Row | mass density [1] [kg/m3] | refractive index [2] | refractive index [3] | mass density [4] [kg/m3] | SMILES
1 | 1682.8 ± 2.5 | 1.432 ± 0.0005 |  |  | O=P(O)(O)O [phosphoric acid] + O
2 |  |  | 1.3326 ± 0.0005 |  | O [water]
3 |  |  | 1.419 ± 0.0005 | 1198.3 ± 2.4 | CC1COC(=O)O1 (stereo not given) [4-methyl-1,3-dioxolan-2-one]
